Data set [1] has as its target Transient receptor potential cation channel subfamily V member 4 (Homo sapiens, UniProt Q9HBA0). Briefly: Antagonist activity at human TRPV4 expressed in BHK or HEK MSR2 cells assessed as inhibition of TRPV4 agonist GSK634775 (EC80)-induced response incubated for 10 mins. The data set is classed as cell-based.
The nature of data set [2]: Solubility of the compound by CLND assay. The format is physicochemical.
A short description of data set [3]: MRT in iv dosed rat. The format is ADME, organism-based. The conditions noted are these: in vivo.
Data set [4] addresses Cytochrome P450 3A4 (Homo sapiens, UniProt P08684). As to the kind of experiment: Time dependent inhibition of recombinant human CYP3A4 expressed in bactosomes at 100 to 300 uM using 7-benzyloxy-4-(trifluoromethyl)-coumarin substrate in presence of NADPH-generating system incubated up to 15 mins by fluorescence based assay. The format is ADME. The conditions noted are these: recombinant enzyme, 0.25 h, dose 100-300 µM.

The nature of data set [5]: Fraction unbound in rat plasma. The data set is classed as ADME, cell-free.
A short description of data set [6]: Dose normalized AUC in orally dosed rat. The format is ADME, organism-based. The conditions noted are these: in vivo, po.
Data set [7] is described as follows: Oral bioavailability in rat. The format is ADME, organism-based. The conditions noted are these: in vivo.
The nature of data set [8]: Clearance in iv dosed rat. The data set is classed as ADME, organism-based. The conditions noted are these: in vivo.
Data set [9] is described as follows: Distribution coefficient, log D of the compound by chromatographic method. The settings on record: octanol/water. The data set is classed as physicochemical.
Data set [10] is described as follows: Unbound clearance in iv dosed rat. The format is ADME, organism-based. The conditions noted are these: in vivo.
A short description of data set [11]: Volume of distribution at steady state in iv dosed rat. The settings on record: in vivo, read-out: Vdss. The format is ADME, organism-based.
The nature of data set [12]: Cmax in rat. The conditions noted are these: in vivo. The data set is classed as ADME.

In brackets after ≈: the same amount, converted by molar mass. Some results are limits rather than exact numbers.

Chain of Transient receptor potential cation channel subfamily V member 4 (Q9HBA0 whole entry): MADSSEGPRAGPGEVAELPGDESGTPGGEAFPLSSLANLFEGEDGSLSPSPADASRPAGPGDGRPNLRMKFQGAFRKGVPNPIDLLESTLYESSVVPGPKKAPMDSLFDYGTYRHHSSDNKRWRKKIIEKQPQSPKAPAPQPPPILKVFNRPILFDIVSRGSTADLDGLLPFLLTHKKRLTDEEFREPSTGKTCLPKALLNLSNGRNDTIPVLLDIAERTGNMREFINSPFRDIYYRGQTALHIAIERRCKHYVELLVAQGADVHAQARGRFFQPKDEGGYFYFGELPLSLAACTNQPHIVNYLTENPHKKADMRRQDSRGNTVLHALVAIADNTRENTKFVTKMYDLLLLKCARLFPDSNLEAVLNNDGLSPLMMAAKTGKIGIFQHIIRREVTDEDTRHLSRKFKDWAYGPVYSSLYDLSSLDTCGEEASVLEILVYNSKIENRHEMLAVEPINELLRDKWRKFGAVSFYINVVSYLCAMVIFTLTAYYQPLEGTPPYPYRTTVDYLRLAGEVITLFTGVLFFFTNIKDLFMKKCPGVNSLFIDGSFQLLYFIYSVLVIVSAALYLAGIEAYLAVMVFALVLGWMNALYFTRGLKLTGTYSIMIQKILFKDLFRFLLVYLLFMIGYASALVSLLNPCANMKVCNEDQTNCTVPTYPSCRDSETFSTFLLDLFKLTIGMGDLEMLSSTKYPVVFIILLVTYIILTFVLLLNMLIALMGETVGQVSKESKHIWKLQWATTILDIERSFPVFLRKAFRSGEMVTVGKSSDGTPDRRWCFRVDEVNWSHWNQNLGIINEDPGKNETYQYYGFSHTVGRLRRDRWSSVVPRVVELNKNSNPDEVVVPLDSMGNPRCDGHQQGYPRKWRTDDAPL
Chain of Cytochrome P450 3A4 (P08684 whole entry): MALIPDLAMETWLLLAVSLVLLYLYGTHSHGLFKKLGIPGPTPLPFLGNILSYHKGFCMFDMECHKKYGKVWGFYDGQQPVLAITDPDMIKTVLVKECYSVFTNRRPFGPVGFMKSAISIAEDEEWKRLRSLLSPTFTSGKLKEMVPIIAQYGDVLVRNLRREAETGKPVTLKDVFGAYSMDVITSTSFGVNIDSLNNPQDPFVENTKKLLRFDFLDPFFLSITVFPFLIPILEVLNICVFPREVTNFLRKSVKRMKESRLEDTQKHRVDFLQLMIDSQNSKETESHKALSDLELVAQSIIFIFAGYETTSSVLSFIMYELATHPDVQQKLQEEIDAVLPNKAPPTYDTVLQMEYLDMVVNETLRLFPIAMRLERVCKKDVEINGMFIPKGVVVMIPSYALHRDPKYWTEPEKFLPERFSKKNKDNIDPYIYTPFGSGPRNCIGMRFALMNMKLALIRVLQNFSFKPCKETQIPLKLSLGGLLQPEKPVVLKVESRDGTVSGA

As to `N#Cc1ccc(OCC2(O)CCN(S(=O)(=O)c3ccc(Cl)cc3Cl)CC2)cc1F`, in [1], the half-inhibitory concentration (IC50) was 0.1 µM. This molecule registered a kinetic solubility in [2] of 7.5 µM (≈ 3.44 µg/mL).
Consider `NC(CCNS(=O)(=O)c1ccc(Cl)cc1Cl)COc1cccc(Cl)c1` (centres undefined), for which the IC50 in [1] is 12.6 µM.
In turn, `N#Cc1ccc(N)c(OC[C@@H](N)CCNS(=O)(=O)c2ccc(Cl)cc2Cl)c1` came in with an MRT in [3] of 2.3 h. Moreover, the “inhibition (INH)” value in data set [4] is on record as “Active”. The unbound share (fraction unbound) in data set [5] came to 0.029. For the same molecule, the AUC/dose in [6] was 0.1 µg·h/mL. In data set [7], the bioavailability was 22%. For the same molecule, the clearance in data set [8] was 38 mL/min/kg.
On to `N#Cc1ccc(OCC(N)CCNS(=O)(=O)c2ccc(Cl)cc2Cl)cc1F` (racemic), for which the chromatographic logD in [9] turned out to be 4.6. Besides, the solubility (kinetic) in data set [2] is ≥ 390 µM.
As to `N#Cc1ccc(OCC(N)CCNS(=O)(=O)c2ccccc2)cc1F` (racemic), the IC50 in data set [1] was 20 µM.
In [3], `N#Cc1ccc(OC[C@@H](N)CCNS(=O)(=O)c2ccc(Cl)cc2Cl)cc1F` registered an MRT of 7.5 h. The molecule further registered a CL free in [10] of 512 mL/min/kg. Further, in data set [11], the Vd amounted to 1.8 L/kg. In addition, the “inhibition (INH)” value in data set [4] is given as “Active”. In addition, the fraction unbound in data set [5] worked out at 0.0084. In data set [6], this molecule returned an AUC/dose of 4.7 µg·h/mL. In data set [9], this molecule displayed a chromatographic logD of 4.5. In [7], the bioavailability stood at 85%. For the same molecule, the kinetic solubility in data set [2] was determined as 381 µM (≈ 165 µg/mL). Moreover, the concentration in [12] peaked (Cmax) at 930 ng/mL. In addition, the clearance in data set [8] is 4.3 mL/min/kg.
Molecule `N#Cc1ccc(S(=O)(=O)NCC[C@H](N)COc2ccc(C#N)c(F)c2)c(C(F)(F)F)c1` returned an MRT in [3] of 6.9 h. Besides, the “inhibition (INH)” value in data set [4] is on record as “Active”. Besides, the fraction unbound in data set [5] was determined as 0.015. Besides, the AUC/dose in data set [6] came out at 3.7 µg·h/mL. The bioavailability in data set [7] was found to be 100%. The molecule further returned a clearance in [8] of 4.7 mL/min/kg.
Regarding `COc1ccccc1S(=O)(=O)NCC[C@H](N)COc1ccc(C#N)c(F)c1`, the IC50 in [1] was 7.94 µM.
Take `N#Cc1ccc(OC[C@@H](N)CCNS(=O)(=O)c2ccccc2OC(F)(F)F)cc1F`: in data set [1], the IC50 is 0.631 µM.
For `Cc1cccc(OCC(N)CCNS(=O)(=O)c2ccc(Cl)cc2Cl)c1` (centres undefined), the IC50 in [1] was > 25.1 µM.
With `N#Cc1ccc(OCC(O)CCNS(=O)(=O)c2ccc(Cl)cc2Cl)cc1F` (centres undefined), in data set [9], the chromatographic logD was found to be 5.2. Also, in data set [2], the kinetic solubility stood at 113 µM (≈ 49 µg/mL).
Turning to `C[C@](N)(CCNS(=O)(=O)c1ccc(C#N)cc1C(F)(F)F)COc1ccc(C#N)c(F)c1`, the MRT in data set [3] was 7 h. Besides, in data set [4], the “inhibition (INH)” value is listed as “Not Active”. In [5], the fraction unbound came out at 0.064. For the same molecule, the AUC/dose in data set [6] stood at 0.6 µg·h/mL. Moreover, the bioavailability in data set [7] worked out at 100%. The clearance in data set [8] is 37 mL/min/kg.
For `N#Cc1ccc(OC[C@@H](N)CCNS(=O)(=O)c2ccccc2C(F)(F)F)cc1F`, the IC50 in data set [1] is 0.0398 µM.
The same measure, in the same setting: next, `CN(CCC(O)COc1ccc(C#N)c(F)c1)S(=O)(=O)c1ccc(Cl)cc1Cl` (racemic): 10 µM; `N#Cc1ccc(OC[C@@H](N)CCNS(=O)(=O)c2ccc(C(F)(F)F)cc2)cc1F`: 0.631 µM; `N#Cc1ccc(OCC(N)CCNS(=O)(=O)c2cccc(Cl)c2)cc1F` (racemic): 12.6 µM.

The values above are taken from ChEMBL document CHEMBL4699649, “Design and Optimization of an Acyclic Amine Series of TRPV4 Antagonists by Electronic Modulation of Hydrogen Bond Interactions” (J Med Chem, 2020).
